Test results: patent US6660690B2, “Seed treatment with combinations of insecticides” (priority 2000, dated 2003)

Tests used:
corn plants = experiment: Vigor rating of corn plants at 12 DAP before infestation (indication of phytotoxicity); type: in vivo; settings: rating 1=extremely low vigor, 10=highest
Method: (§1) A lambda-cyhalothrin seed treatment formulation was prepared by diluting the WARRIOR® T insecticide (Zeneca Ag Products, Wilmington, Del.), which contains 11.4% lambda-cyhalothrin as the active ingredient, into water as a carrier. This formulation was applied for one minute at room temperature to twenty-five grams of Pioneer corn seed (Cultivar PN3394) in a rotostatic seed treater at a rate of 125 g, 250 g or 500 g active ingredient (Al) to 100 kg seed. The treated seeds were allowed to sit uncapped for four to twenty-four hours before planting.
(§2) Treated and untreated seeds (Pioneer hybrid PN3394) were planted in a soil mix consisting of Dupo silt loam, 30% Perlite, 20% coarse sand (WB-10 grade) in six groups of tubs (20 in. L×15 in. W×8 in. D). Twelve seeds were planted per tub and three tubs were planted for each treatment regimen. Soil applications of FORCE® 3GR, which contains 3% tefluthrin granule as the active ingredient, were used for two sets of tubs containing untreated seeds. The FORCE 3GR was applied either in-furrow or incorporated into a 5 inch band on the soil surface at the time of planting. The tubs were overhead irrigated until the plants were infested with black cutworm larvae.
At twelve days after planting (DAP) but before infestation, the overall health of each plant was rated by looking at emergence, height and appearance. This vigor rating gives an indication of any phytotoxicity from the seed or soil treatment. A rating of 1 indicates extremely low vigor while 10 is the highest vigor rating.

black cutworm larvae = experiment: Black cutworm feeding damage on corn grown from treated seed or in treated soil (Reference Example 1); type: in vivo; settings: for Plant Defol. 3 DAI / Plant Defol. 7 DAI / Plant Defol. 10 DAI: rating 1=no damage, 10=complete defoliation
Method: as §1, §2
The rate of application for the FORCE 3GR was reported in units of grams of the active ingredient per hectare (g/ha), while the rate of application of the WARRIOR T to the seeds was reported in units of grams of the active ingredient per 100 kilograms of the seeds (g/100 kg). Although the conversion of one of these units to the other will vary somewhat according to the type of seed that is being used, the size and weight of the seed, and the density of planting that is used—among other things—an approximate conversion for corn seed can be carried out as follows. Assuming a seed application rate of lambda cyhalothrin of, for example, 125 g/100 kg of seed and a planting density of 15 lbs seed/ac, about 14.7 acres can be planted with 100 kg of the seed. This is an effective application rate of about 8.5 g of lambda cyhalthrin per acre. At 2.47 ac/ha, the seed treatment level of 125 g/100 kg is approximately equivalent to a surface banding treatment at about 21 g/ha.
The corn plants were infested at 12 DAP, which corresponds to late growth stage V1 by placing two black cutworm larvae at ¾ instar on the soil surface near the base of the plant. Plants were rated 3, 7 and 10 days after infestation (DAI) for the number of cut plants, as well as damage from leaf feeding. The percent stand reduction due to plant cutting was calculated by dividing the number of cut plants into the number of plants present at infestation. The foliar feeding injury was evaluated using a rating scale of 1=no damage and 10=complete defoliation.

Cc1c(F)c(F)c(COC(=O)[C@@H]2[C@H](/C=C(\Cl)C(F)(F)F)C2(C)C)c(F)c1F (racemic) [Tefluthrin, (2,3,5,6-tetrafluoro-4-methylphenyl)-methyl-(1 alpha, 3 alpha)-(Z)-(±)-3-(2-chloro-3,3,3-trifluoro-1-propenyl)-2,2-dimethylcyclopropanecarboxylate]
Vigor at 12 DAP (corn plants; soil granule (FORCE 3GR) banded 30 g/ha): 8.7
Vigor at 12 DAP (corn plants; soil granule (FORCE 3GR) in-furrow 30 g/ha): 9.0
% Stand Reduct'n 3 DAI (black cutworm larvae; soil granule banded 30 g/ha): 0.0%
Plant Defol. 3 DAI (black cutworm larvae; soil granule banded 30 g/ha): 1.7
% Stand Reduct'n 7 DAI (black cutworm larvae; soil granule banded 30 g/ha): 0.0%
Plant Defol. 7 DAI (black cutworm larvae; soil granule banded 30 g/ha): 1.7
% Stand Reduct'n 10 DAI (black cutworm larvae; soil granule banded 30 g/ha): 0.0%
Plant Defol. 10 DAI (black cutworm larvae; soil granule banded 30 g/ha): 0.3
% Stand Reduct'n 3 DAI (black cutworm larvae; soil granule in-furrow 30 g/ha): 33.9%
Plant Defol. 3 DAI (black cutworm larvae; soil granule in-furrow 30 g/ha): 5.0
% Stand Reduct'n 7 DAI (black cutworm larvae; soil granule in-furrow 30 g/ha): 48.0%
Plant Defol. 7 DAI (black cutworm larvae; soil granule in-furrow 30 g/ha): 6.0
% Stand Reduct'n 10 DAI (black cutworm larvae; soil granule in-furrow 30 g/ha): 48.0%
Plant Defol. 10 DAI (black cutworm larvae; soil granule in-furrow 30 g/ha): 5.3

CC1(C)[C@H](C(=O)O[C@H](C#N)c2cccc(Oc3ccccc3)c2)[C@@H]1/C=C(\Cl)C(F)(F)F [λ-cyhalothrin, [1 alpha (s), 3 alpha(z)]-cyano(3-phenoxyphenyl) methyl-3-(2-chloro-3,3,3-trifluoro-1-propenyl)-2,2-dimethylcyclopropane carboxylate]
Vigor at 12 DAP (corn plants; seed treatment 125 g/100 kg): 9.0
Vigor at 12 DAP (corn plants; seed treatment 250 g/100 kg): 8.3
Vigor at 12 DAP (corn plants; seed treatment 500 g/100 kg): 8.3
% Stand Reduct'n 3 DAI (black cutworm larvae; seed treatment 125 g/100 kg): 13.9%
Plant Defol. 3 DAI (black cutworm larvae; seed treatment 125 g/100 kg): 4.3
% Stand Reduct'n 7 DAI (black cutworm larvae; seed treatment 125 g/100 kg): 16.7%
Plant Defol. 7 DAI (black cutworm larvae; seed treatment 125 g/100 kg): 5.0
% Stand Reduct'n 10 DAI (black cutworm larvae; seed treatment 125 g/100 kg): 19.4%
Plant Defol. 10 DAI (black cutworm larvae; seed treatment 125 g/100 kg): 3.3
% Stand Reduct'n 3 DAI (black cutworm larvae; seed treatment 250 g/100 kg): 3.0%
Plant Defol. 3 DAI (black cutworm larvae; seed treatment 250 g/100 kg): 3.7
% Stand Reduct'n 7 DAI (black cutworm larvae; seed treatment 250 g/100 kg): 3.0%
% Stand Reduct'n 7 DAI (black cutworm larvae; seed treatment 250 g/100 kg, listed as lambda-cyhalothrin): 3%
Plant Defol. 7 DAI (black cutworm larvae; seed treatment 250 g/100 kg): 2.7
% Stand Reduct'n 10 DAI (black cutworm larvae; seed treatment 250 g/100 kg): 3.0%
Plant Defol. 10 DAI (black cutworm larvae; seed treatment 250 g/100 kg): 1.7
% Stand Reduct'n 3 DAI (black cutworm larvae; seed treatment 500 g/100 kg): 0.0%
Plant Defol. 3 DAI (black cutworm larvae; seed treatment 500 g/100 kg): 2.0
% Stand Reduct'n 7 DAI (black cutworm larvae; seed treatment 500 g/100 kg): 0.0%
% Stand Reduct'n 7 DAI (black cutworm larvae; seed treatment 500 g/100 kg, listed as lambda-cyhalothrin): 0%
Plant Defol. 7 DAI (black cutworm larvae; seed treatment 500 g/100 kg): 2.3
% Stand Reduct'n 10 DAI (black cutworm larvae; seed treatment 500 g/100 kg): 0.0%
Plant Defol. 10 DAI (black cutworm larvae; seed treatment 500 g/100 kg): 1.0
